Measurements from PMC3673949, “Small Molecule R1498 as a Well-Tolerated and Orally Active Kinase Inhibitor for Hepatocellular Carcinoma and Gastric Cancer Treatment via Targeting Angiogenesis and Mitosis Pathways” (PLoS ONE, 2013).
Where “and” joins values, the source holds several entries; their conditions need not be identical. Equal values may be shown once.

How the values were obtained:
HUVEC (FBS stimulated) = assay: HUVEC proliferation in 10% FBS; type: cell-based; conditions: Homo sapiens, 72 h
Method: Each cell line was seeded in a 96-well tissue culture plate (Corning, NY) at a predetermined density in 180 µL complete medium, attached overnight and treated by compound for another 72 h. Then the medium was discarded and replaced with 10% CCK-8 (Dojindo, Kumamoto, Japan) in complete medium, then incubated the plates for another 2 h. The OD450 was measured with SpectraMAX 190 spectrophotometer (MDS, Sunnyvale, CA). A background absorbance of ODblank was subtracted from all wells.
In VEGF-induced HUVEC proliferation assay, the HUVECs suspended in 170 µL EGM-2 with 0.5% FBS were seeded and incubated overnight. After the cells attached, 10 µL 1 µg/ml recombinant human VEGF 165 (R&D systems, Minneapolis, MN) was added to each well together with 20 µl compound solutions prepared in EGM-2 with 0.5% FBS. The CCK-8 assay as above was used for determination of cell viability.

BEL-7402 xenograft = assay: Xenograft efficacy study; type: in vivo, BALB/C nu/nu nude mice
Method: (§2) Tumor cells were inoculated into the right flank of BALB/C nu/nu female nude mice (5∼6 weeks, 16∼18 g, obtained from Sino-British SIPPR/BK Lab. Animal Ltd, Shanghai, China) at optimal density based on our in-house validation study. After the tumor was established and reached 100∼150 mm^3, the mice were randomized into ten mice per group and received treatment according to the schedule. The tumor growth was recorded three times a week with the measurement of length (L) and width (W) by caliper, and calculated as tumor volume (TV, mm^3) = 0.5*L*W*W (mm). […] The tumor regression of individual mouse was defined - the tumor volume at the end was less than the tumor volume when treatment was initiated.

BEL-7404 xenograft = assay: Xenograft efficacy study; type: in vivo, BALB/C nu/nu nude mice
Method: as §2

[1] = tested on: human primary gastric tumor derived xenografts; assay: Three human GC primary tumor derived xenograft models (overall); type: in vivo, BALB/C nu/nu nude mice; conditions: three patient derived gastric xenografts, 25 mg/kg
Method: In human primary tumor models, fresh human gastric tumor tissues were directly implanted into nonobese diabetic and severe combined immune-deficient (NOD-SCID) mice within 5 hours post-surgery with 5 mm^3 fragments to establish primary tumor xenograft models. […] Treatment began when tumor volume reached 100∼150 mm^3. The tumor measurement and operation protocol was the same as cell line derived tumor model.

GC and HCC xenografts = assay: Panel of GC and HCC xenografts, comparison with sorafenib; type: in vivo, BALB/C nu/nu nude mice
Method: as §2

HCCLM3 xenograft = assay: Xenograft efficacy study; type: in vivo, BALB/C nu/nu nude mice; conditions: HCCLM3, 12.5 mg/kg twice a day per oral gavage
Method: as §2

Aurora kinase A = Aurora kinase A (Homo sapiens, UniProt O14965); assay: Z'-Lyte kinase activity assay; type: biochemical; conditions: mean of three independent experiments
Method: (§1) The affinity of R1498 against 402 kinases was determined by KINOMEScan® (Ambit Biosciences, San Diego, CA) and data were presented as dissociation constant (Kd) values. The inhibition on kinase activity of Aurora kinases and VEGFR2 was further characterized by Z’-Lyte kinase activity assays under corresponding ATP concentrations.

VEGFR2 = VEGFR2 (Homo sapiens, UniProt P35968); assay: Z'-Lyte kinase activity assay; type: biochemical; conditions: mean of three independent experiments
Method: as §1

Aurora kinase B = Aurora kinase B (Homo sapiens, UniProt Q96GD4); assay: Z'-Lyte kinase activity assay; type: biochemical; conditions: mean of three independent experiments
Method: as §1

BGC-823 xenograft = assay: Xenograft efficacy study; type: in vivo, BALB/C nu/nu nude mice
Method: as §2

phospho-Aurora A (T288) = assay: Immunohistochemistry of BEL-7402 tumors, Aurora kinase A activity marker; type: in vivo, BALB/C nu/nu nude mice; conditions: BEL-7402 tumors from efficacy study
Method: The 8 µm paraffin embedded tumor tissue slides prepared from tumor of in vivo efficacy studies were heated in a dry oven at 60°C for 1 hour, then deparaffinized and hydrolyzed by Leica autostainer XL ST5010 at room temperature. Antigen retrieval was carried out at 95∼99°C in citrate buffer (0.01 M, pH 6.0) heated by a medical microwave at 92–98°C for 5 min, then cooled down to room temperature. Then peroxidase-blocking reagent (DAKO, DK-2600, Glostrup Denmark) was applied to quench the endogenous peroxidase. The slides were incubated in blocking serum for 20 min, then covered by 100 µL phospho-Aurora A (Thr288) (C39D8) rabbit mAb (CST #3079, 1∶200 in TBS/T) or rabbit anti-human CD31 polyclonal antibody (Santa Cruz Biotech, sc-8306, Santa Cruz, CA, USA; 1∶200 in TBS/T) at 4°C overnight, then incubated in 100 µL DAKO Envision+/HRP, rabbit/mouse after being washed thoroughly with TBS. One hundred micro liters of substrate-chromogenic solution (DAB) were applied to the slides and incubated at room temperature for 10 min. The slides were rinsed gently with tap water for 15 min. Counterstain and dehydration was performed by XL ST5010 at room temperature. Finally, the slides were mounted with Permount mounting medium (Fisher Scientific, Miami, FL).

tubulin = assay: In vitro tubulin polymerization assay; type: biochemical; conditions: 40 µM, OD340
Method: In vitro tubulin polymerization assay was performed as described previously.

SGC-7901 xenograft = assay: Xenograft efficacy study; type: in vivo, BALB/C nu/nu nude mice
Method: as §2

402 kinases = assay: KINOMEScan kinase affinity profiling; type: binding; conditions: 1 µM, ATP around Km of each kinase; 359 wild-type kinases and 43 mutants
Method: as §1

Chain of VEGFR2 (P35968 20-1356): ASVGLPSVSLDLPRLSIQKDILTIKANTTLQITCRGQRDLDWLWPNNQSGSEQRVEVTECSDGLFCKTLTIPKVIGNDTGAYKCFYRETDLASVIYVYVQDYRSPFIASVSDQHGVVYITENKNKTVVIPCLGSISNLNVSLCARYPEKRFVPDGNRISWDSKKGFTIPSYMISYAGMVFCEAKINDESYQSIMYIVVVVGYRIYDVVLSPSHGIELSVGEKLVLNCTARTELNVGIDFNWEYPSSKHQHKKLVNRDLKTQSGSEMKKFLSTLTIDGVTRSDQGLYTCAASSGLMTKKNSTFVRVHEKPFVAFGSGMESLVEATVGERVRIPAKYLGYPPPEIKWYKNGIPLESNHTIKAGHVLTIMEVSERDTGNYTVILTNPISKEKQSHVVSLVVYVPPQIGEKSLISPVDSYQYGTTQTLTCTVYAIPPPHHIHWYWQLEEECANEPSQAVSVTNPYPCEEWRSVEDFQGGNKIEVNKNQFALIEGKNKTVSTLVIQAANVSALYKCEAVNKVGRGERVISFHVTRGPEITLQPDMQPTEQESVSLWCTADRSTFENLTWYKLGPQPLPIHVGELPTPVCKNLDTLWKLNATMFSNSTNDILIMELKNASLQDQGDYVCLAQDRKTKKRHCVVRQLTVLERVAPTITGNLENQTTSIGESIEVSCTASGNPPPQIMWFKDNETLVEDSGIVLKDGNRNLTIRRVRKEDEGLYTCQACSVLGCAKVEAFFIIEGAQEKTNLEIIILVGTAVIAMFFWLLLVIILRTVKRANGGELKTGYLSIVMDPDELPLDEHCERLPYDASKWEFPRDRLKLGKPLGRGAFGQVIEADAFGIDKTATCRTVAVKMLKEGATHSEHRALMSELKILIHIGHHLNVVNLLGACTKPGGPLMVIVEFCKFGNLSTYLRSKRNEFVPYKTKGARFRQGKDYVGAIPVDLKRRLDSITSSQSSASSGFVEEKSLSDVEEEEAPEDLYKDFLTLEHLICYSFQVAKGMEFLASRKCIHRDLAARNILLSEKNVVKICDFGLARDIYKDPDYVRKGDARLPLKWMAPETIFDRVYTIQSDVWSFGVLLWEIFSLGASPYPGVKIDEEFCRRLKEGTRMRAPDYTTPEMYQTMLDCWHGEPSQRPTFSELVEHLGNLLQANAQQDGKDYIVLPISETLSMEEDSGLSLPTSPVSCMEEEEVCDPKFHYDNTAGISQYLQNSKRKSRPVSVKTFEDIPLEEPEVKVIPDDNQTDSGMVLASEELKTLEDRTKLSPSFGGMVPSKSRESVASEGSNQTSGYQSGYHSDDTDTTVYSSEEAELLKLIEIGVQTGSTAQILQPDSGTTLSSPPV
Chain of Aurora kinase B (Q96GD4 whole entry): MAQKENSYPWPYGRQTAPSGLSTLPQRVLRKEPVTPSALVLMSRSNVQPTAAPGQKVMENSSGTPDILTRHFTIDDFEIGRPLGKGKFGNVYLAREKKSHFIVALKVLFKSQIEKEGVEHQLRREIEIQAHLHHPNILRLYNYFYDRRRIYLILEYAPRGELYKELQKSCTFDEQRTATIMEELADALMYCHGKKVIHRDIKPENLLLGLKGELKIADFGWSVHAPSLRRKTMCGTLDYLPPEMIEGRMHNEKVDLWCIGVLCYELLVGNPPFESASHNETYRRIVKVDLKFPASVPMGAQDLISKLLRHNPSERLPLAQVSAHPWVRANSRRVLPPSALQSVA
Chain of Aurora kinase A (O14965 whole entry): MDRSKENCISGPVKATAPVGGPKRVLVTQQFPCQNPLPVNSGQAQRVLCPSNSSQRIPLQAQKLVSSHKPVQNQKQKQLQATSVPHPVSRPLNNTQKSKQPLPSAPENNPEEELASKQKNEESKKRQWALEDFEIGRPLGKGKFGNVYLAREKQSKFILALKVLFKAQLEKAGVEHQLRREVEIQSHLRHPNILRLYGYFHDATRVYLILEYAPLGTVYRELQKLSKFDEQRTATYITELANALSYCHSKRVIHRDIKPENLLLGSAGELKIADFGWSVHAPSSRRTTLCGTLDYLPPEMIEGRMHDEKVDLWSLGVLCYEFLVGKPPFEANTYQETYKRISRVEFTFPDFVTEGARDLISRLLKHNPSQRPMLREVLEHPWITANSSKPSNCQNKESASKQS

COc1ccc2c(c1)C(c1ccccc1Cl)=Nc1c(n[nH]c1C)N2 [R1498]
IC50 (HUVEC (FBS stimulated)): 2060 nM
Final TGI% (BEL-7402 xenograft; BEL-7402, 25 mg/kg twice a day per oral gavage, day of study termination): 102%
Body weight changes% (BEL-7402 xenograft; BEL-7402, 25 mg/kg twice a day per oral gavage, before vs after treatment): 2%
Tumor Regression (BEL-7402 xenograft; BEL-7402, 25 mg/kg twice a day per oral gavage, mice with regression/group): 8/10
Final TGI% (BEL-7402 xenograft; BEL-7402, 3.125 mpk, bid, PO): 56%
Final TGI% (BEL-7402 xenograft; BEL-7402, 6.25 mpk, bid, PO): 69%
Final TGI% (BEL-7402 xenograft; BEL-7402, 12.5 mpk, bid, PO): 90%
Final TGI% (BEL-7404 xenograft; BEL-7404, 12.5 mg/kg twice a day per oral gavage, day of study termination (Table S2)): 90%
Body weight changes% (BEL-7404 xenograft; BEL-7404, 12.5 mg/kg twice a day per oral gavage, before vs after treatment): -1.9%
Tumor Regression (BEL-7404 xenograft; BEL-7404, 12.5 mg/kg twice a day per oral gavage, mice with regression/group): 0/10
Final TGI% (BEL-7404 xenograft; BEL-7404, 3.125 mpk, bid, PO): 47%
Final TGI% (BEL-7404 xenograft; BEL-7404, 6.25 mpk, bid, PO): 67%
Final TGI% [1]: 73.6 ∼ 91.6%
regression rates [1]: 10–30% and 10∼30%
tumor growth inhibition (GC and HCC xenografts; all test models (GC and HCC xenografts)): > 80%
TGI% over TGI% of sorafenib (GC and HCC xenografts; gastric cancer xenografts, same schedule): 2–12%
TGI% more than TGI% of sorafenib (GC and HCC xenografts; hepatocarcinoma xenografts, same schedule): 10–19%
Final TGI% (HCCLM3 xenograft; day of study termination): 81%
Body weight changes% (HCCLM3 xenograft; before vs after treatment): 15.3%
Tumor Regression (HCCLM3 xenograft; mice with regression/group): 0/10
IC50 (Aurora kinase A): 67 ± 4 nM
IC50 (VEGFR2): 25 ± 6 nM
IC50 (Aurora kinase B): 167 ± 13 nM
Final TGI% (BGC-823 xenograft; BGC-823, 25 mg/kg twice a day per oral gavage, day of study termination (Table S2)): 94%
Body weight changes% (BGC-823 xenograft; BGC-823, 25 mg/kg twice a day per oral gavage, before vs after treatment): 2%
Tumor Regression (BGC-823 xenograft; BGC-823, 25 mg/kg twice a day per oral gavage, mice with regression/group): 0/10
Final TGI% (BGC-823 xenograft; BGC-823, 6.25 mpk, bid, PO): 78%
Final TGI% (BGC-823 xenograft; BGC-823, 12.5 mpk, bid, PO): 88%
Final TGI% (BGC-823 xenograft; BGC-823, 25 mpk, bid, PO (Table S3)): 94%
phospho-Aurora A (T288) staining in tumors (phospho-Aurora A (T288)): weaker staining
effect on microtubule polymerization (tubulin): neither stabilized nor destabilized microtubule polymerization
Final TGI% (SGC-7901 xenograft; SGC-7901, 25 mg/kg twice a day per oral gavage, day of study termination (Table S2)): 100%
Body weight changes% (SGC-7901 xenograft; SGC-7901, 25 mg/kg twice a day per oral gavage, before vs after treatment): 2%
Tumor Regression (SGC-7901 xenograft; SGC-7901, 25 mg/kg twice a day per oral gavage, mice with regression/group): 5/10
Final TGI% (SGC-7901 xenograft; SGC-7901, 6.25 mpk, bid, PO): 69%
Final TGI% (SGC-7901 xenograft; SGC-7901, 12.5 mpk, bid, PO): 83%
number of kinases with inhibition rate over 80% out of 402 kinases (402 kinases): 39
